Reference: ChEMBL document CHEMBL5104173, “Combining monoamine oxidase B and semicarbazide-sensitive amine oxidase enzyme inhibition to address inflammatory disease” (Bioorg Med Chem Lett, 2022)
Activity calls are given as the source filed them. The rule behind the calls is not given here.

Experiments:
[1] = biological target: recombinant human DAO (diamine oxidase) (Homo sapiens, UniProt P19801); assay: Inhibition of human recombinant DAO
[2] = biological target: T1, Amine oxidase [flavin-containing] A (Homo sapiens, UniProt P21397); assay: Inhibition of human recombinant MAO-A
T1 sequence (P21397 whole entry): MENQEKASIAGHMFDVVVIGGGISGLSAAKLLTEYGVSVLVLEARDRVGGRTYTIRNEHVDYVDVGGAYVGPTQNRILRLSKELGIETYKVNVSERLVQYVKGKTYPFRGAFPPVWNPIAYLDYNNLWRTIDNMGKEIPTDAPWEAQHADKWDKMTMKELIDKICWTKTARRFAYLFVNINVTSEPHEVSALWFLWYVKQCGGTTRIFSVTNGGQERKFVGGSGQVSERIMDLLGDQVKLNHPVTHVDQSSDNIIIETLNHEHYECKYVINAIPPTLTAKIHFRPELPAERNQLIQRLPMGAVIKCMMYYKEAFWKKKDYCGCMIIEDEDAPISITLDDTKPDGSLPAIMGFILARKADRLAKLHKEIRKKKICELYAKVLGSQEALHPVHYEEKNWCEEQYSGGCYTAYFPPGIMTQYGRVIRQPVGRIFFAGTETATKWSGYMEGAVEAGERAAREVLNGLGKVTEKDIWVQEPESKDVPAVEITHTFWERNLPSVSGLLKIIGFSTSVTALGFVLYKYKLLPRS

[3] = Permeability in MDCK-MDR1 cells; type: ADME, cell-based, Canis lupus familiaris; conditions: dog
[4] = biological target: T2, Amine oxidase [flavin-containing] B (Homo sapiens, UniProt P27338); assay: Inhibition of human recombinant MAO-B
T2 sequence (P27338 whole entry): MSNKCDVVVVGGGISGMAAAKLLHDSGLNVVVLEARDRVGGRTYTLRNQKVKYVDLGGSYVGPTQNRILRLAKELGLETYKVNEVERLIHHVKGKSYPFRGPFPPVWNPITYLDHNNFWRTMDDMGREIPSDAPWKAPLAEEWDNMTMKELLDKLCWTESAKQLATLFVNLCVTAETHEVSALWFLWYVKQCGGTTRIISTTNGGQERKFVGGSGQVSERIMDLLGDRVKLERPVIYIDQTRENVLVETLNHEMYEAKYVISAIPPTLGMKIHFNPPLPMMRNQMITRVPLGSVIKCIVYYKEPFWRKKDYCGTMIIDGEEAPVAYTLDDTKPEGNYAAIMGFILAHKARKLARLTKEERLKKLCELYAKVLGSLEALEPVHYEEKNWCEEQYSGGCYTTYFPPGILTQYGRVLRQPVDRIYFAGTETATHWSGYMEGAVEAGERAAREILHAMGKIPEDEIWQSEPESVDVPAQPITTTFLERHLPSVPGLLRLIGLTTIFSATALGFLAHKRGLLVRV

[5] = Plasma protein binding in human; type: ADME, cell-free; conditions: read-out: PPB (converted)
Mus musculus [6] = assay: Antiinflammatory activity against mouse air pouch model of carrageenan-induced oedema assessed as reduction in total inflammatory cell volume into air pouch at 0.6 to 6 mg/kg, po administered as single dose for 1 hr followed byb carrageenan administration; type: functional, organism-based; conditions: dose 0.6-6 mg/kg
[7] = Plasma protein binding in rat; type: ADME, cell-free; conditions: read-out: PPB (converted)
Cytochrome P450 2C19 = Cytochrome P450 2C19 (Homo sapiens, UniProt P33261); assay: Inhibition of CYP2C19 (unknown origin)
Rattus norvegicus [8] = assay: In vivo inhibition of MOA-A in Wistar rat brain at 3 mg/kg, po administered as single dose and measured upto 48 hrs; type: functional, organism-based
Cytochrome P450 1A2 = biological target: T3, Cytochrome P450 1A2 (Homo sapiens, UniProt P05177); assay: Inhibition of CYP1A2 (unknown origin); type: ADME
T3 sequence (P05177 whole entry): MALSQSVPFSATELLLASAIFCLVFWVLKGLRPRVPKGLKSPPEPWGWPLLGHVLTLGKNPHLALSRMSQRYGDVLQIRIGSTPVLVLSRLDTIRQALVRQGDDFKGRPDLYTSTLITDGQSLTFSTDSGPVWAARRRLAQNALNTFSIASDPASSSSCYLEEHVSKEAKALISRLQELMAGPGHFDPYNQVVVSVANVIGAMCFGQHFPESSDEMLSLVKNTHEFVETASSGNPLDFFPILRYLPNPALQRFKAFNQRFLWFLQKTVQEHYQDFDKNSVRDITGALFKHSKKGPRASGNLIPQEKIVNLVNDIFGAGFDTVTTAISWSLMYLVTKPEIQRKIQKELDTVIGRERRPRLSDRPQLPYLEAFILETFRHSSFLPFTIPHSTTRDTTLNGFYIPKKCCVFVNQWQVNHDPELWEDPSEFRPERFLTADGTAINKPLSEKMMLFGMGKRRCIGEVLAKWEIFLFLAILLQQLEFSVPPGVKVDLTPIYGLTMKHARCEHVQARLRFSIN

[9] = Stability in dog microsomes measured after 1 hr; type: ADME, Canis lupus familiaris, Microsome; conditions: read-out: Stability
[10] = Plasma protein binding in dog; type: ADME, cell-free, Canis lupus familiaris; conditions: read-out: PPB (converted)
[11] = AUC (0 to infinity) in Wistar rat at 3 mg/kg, po; type: ADME, organism-based; parameters: time infinity, dose 3 mg/kg, route po; conditions: in vivo
Cytochrome P450 2C9 = Cytochrome P450 2C9 (Homo sapiens, UniProt P11712); assay: Inhibition of CYP2C9 (unknown origin); type: ADME
[12] = biological target: Lysine-specific histone demethylase 1A (Homo sapiens, UniProt O60341); assay: Inhibition of LSD1 (unknown origin)
Lysyl oxidase homolog 2 = biological target: T4, Lysyl oxidase homolog 2 (Homo sapiens, UniProt Q9Y4K0); assay: Inhibition of recombinant human LOXL-2
T4 sequence (Q9Y4K0 whole entry): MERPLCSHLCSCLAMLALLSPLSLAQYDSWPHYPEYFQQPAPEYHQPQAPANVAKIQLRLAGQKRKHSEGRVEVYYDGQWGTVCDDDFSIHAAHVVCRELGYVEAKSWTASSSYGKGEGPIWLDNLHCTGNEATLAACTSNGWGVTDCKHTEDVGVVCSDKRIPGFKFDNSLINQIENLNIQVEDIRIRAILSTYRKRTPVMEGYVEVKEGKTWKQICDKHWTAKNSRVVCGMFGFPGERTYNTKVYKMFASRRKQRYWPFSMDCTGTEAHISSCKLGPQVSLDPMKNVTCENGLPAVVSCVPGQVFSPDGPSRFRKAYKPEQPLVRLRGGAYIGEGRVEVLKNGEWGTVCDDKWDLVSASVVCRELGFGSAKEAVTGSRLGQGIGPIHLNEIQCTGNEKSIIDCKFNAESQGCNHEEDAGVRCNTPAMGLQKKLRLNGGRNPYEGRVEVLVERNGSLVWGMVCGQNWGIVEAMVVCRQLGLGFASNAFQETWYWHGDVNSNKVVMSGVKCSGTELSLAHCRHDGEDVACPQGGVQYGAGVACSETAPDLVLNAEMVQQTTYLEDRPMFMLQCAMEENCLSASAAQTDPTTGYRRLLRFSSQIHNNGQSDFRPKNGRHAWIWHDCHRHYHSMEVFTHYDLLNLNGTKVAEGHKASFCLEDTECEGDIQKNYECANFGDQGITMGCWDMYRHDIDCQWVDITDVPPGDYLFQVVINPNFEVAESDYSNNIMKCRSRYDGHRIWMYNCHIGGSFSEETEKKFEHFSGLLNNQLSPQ

[13] = Tmax in Wistar rat at 3 mg/kg, po; type: ADME, organism-based; conditions: in vivo
[14] = Cmax in Wistar rat at 3 mg/kg, po; type: ADME, organism-based; parameters: dose 3 mg/kg, route po; conditions: in vivo
[15] = Stability in rat microsomes measured after 1 hr; type: ADME, Microsome; conditions: read-out: Stability
Cytochrome P450 2D6 = Cytochrome P450 2D6 (Homo sapiens, UniProt P10635); assay: Inhibition of CYP2D6 (unknown origin); type: ADME
[16] = Stability in human microsomes measured after 1 hr; type: ADME, Microsome; conditions: read-out: Stability
Cytochrome P450 3A4 = Cytochrome P450 3A4 (Homo sapiens, UniProt P08684); assay: Inhibition of CYP3A4 (unknown origin); type: ADME
Protein-lysine 6-oxidase = biological target: T5, Protein-lysine 6-oxidase (Bos taurus, UniProt P33072); assay: Inhibition of bovine aorta LOX; type: tissue-based
T5 sequence (P33072 whole entry): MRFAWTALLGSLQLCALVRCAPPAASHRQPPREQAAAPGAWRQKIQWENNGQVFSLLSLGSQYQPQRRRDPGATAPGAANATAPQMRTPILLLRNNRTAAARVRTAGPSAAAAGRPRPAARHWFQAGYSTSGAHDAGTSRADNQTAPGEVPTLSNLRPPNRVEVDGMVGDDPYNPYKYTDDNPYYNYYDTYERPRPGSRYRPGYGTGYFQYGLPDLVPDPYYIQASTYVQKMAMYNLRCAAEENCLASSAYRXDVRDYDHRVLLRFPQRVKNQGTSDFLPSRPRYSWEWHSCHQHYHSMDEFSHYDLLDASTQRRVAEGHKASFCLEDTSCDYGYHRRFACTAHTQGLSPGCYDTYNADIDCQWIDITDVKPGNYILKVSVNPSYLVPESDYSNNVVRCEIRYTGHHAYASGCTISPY

Mus musculus [17] = assay: Antineuroinflammatory activity in PLP-induced autoimmune encephalomyelitis mouse model assessed as reduction in AUC of clinical score at 0.6 to 6 mg/kg/day, po administered once daily via oral gavage starting from day 13 post PLP sensibilization and measured on day 30; type: functional, organism-based; conditions: dose 0.6-6 mg/kg/day, time 17.0 day
[18] = biological target: T6, Amine oxidase [flavin-containing] B (Mus musculus, UniProt Q8BW75); assay: Inhibition of mouse muscle MAO-B; type: tissue-based, Muscle tissue
T6 sequence (Q8BW75 whole entry): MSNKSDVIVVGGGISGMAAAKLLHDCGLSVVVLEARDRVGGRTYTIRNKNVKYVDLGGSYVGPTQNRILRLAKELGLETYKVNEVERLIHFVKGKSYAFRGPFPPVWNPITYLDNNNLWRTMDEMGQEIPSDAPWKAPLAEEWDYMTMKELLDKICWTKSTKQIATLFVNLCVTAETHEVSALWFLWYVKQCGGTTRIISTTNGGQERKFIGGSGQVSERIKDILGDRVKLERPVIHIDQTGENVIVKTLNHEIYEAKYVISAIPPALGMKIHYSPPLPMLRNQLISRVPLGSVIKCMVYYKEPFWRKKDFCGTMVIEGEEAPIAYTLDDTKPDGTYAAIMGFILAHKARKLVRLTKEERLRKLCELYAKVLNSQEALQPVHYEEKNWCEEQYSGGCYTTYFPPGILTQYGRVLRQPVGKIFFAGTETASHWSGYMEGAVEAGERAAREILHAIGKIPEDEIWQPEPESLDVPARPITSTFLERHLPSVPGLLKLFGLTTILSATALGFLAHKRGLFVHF

Rattus norvegicus [19] = assay: In vivo inhibition of MOA-B in Wistar rat brain at 0.6 mg/kg, po administered as single dose and measured upto 48 hrs; type: functional, organism-based
Rattus norvegicus [20] = assay: In vivo inhibition of SSAO in Wistar rat adipose tissue at 0.6 mg/kg, po administered as single dose and measured upto 48 hrs; type: functional, organism-based
Mus musculus [21] = assay: Antiinflammatory activity against mouse air pouch model of carrageenan-induced oedema assessed as reduction in neutrophil number in infiltrate at 0.6 mg/kg, po administered as single dose for 1 hr followed byb carrageenan administration; type: functional, organism-based
[22] = Stability in human hepatocytes assessed as parent compound remaining measured after 1 hr; type: ADME, cell-based, Hepatocyte; conditions: read-out: Stability
[23] = Inhibition of sodium channel (unknown origin) at 10 uM; type: toxicity; conditions: human
[24] = Inhibition of calcium channel (unknown origin) at 10 uM; type: toxicity; conditions: human
[25] = Inhibition of potassium channel (unknown origin) at 10 uM; type: toxicity; conditions: human

Sequence of Cytochrome P450 2C19 (P33261 whole entry): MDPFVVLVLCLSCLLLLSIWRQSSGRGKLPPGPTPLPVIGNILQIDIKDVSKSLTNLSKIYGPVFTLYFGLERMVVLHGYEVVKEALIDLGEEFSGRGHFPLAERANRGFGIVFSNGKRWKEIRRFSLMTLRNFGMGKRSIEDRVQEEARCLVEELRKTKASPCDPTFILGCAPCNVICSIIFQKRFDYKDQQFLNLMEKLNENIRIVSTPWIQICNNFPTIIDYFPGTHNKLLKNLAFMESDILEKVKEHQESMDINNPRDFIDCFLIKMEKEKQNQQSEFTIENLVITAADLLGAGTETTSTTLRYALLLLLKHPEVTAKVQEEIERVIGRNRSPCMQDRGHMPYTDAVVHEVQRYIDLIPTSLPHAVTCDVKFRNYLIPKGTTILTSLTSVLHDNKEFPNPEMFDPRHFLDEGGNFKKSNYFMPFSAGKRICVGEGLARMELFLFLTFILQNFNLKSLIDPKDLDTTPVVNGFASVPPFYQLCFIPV
Sequence of Cytochrome P450 2D6 (P10635 whole entry): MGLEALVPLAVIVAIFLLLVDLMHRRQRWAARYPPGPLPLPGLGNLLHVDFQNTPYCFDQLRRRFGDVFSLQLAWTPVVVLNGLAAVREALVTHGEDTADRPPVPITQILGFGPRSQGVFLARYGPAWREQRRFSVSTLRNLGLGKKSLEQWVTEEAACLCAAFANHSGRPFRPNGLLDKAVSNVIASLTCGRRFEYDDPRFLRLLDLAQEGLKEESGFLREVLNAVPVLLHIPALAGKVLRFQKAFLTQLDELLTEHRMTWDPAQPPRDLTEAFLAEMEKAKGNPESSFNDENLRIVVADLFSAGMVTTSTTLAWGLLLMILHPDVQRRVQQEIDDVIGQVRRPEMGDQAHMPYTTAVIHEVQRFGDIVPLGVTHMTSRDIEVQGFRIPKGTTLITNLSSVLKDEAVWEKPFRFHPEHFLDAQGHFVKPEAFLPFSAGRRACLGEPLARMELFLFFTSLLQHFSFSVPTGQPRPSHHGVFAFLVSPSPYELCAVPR
Sequence of Cytochrome P450 2C9 (P11712 whole entry): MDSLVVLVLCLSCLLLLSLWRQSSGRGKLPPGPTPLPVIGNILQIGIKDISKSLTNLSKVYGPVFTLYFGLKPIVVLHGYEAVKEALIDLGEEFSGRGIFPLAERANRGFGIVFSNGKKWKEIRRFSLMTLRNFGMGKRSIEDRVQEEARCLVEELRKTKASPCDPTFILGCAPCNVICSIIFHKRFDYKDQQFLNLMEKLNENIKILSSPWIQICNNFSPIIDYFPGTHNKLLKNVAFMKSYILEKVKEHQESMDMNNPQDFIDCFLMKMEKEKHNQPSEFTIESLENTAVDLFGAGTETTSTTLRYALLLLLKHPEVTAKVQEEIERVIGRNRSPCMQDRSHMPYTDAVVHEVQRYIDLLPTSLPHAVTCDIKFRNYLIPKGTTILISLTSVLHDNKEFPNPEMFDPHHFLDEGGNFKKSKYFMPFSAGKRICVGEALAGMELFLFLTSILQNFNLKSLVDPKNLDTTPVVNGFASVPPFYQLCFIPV
Sequence of Cytochrome P450 3A4 (P08684 whole entry): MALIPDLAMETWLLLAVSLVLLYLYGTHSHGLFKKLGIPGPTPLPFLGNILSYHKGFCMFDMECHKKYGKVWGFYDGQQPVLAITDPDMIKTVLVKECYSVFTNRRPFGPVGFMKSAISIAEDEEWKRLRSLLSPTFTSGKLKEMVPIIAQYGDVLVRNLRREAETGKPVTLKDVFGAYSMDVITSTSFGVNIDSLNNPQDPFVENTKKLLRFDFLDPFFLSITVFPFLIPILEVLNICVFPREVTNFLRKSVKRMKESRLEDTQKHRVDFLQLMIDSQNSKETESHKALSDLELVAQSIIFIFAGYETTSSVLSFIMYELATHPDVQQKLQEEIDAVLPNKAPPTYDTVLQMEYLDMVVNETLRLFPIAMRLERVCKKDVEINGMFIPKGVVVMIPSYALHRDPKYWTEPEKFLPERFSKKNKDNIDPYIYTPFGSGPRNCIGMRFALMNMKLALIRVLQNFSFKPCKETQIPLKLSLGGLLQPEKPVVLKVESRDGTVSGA

Compound: Cl.NC/C(=C\F)[C@@H]1Cc2ccccc2O1
- IC50 [1]: > 30000 nM
- IC50 [2]: 750 nM
- permeability [3]: Permeable

Compound: NCC(=CF)COc1ccccc1 (mixture of isomers)
- IC50 [1]: 1600 nM
- IC50 [2]: 2500 nM
- IC50 [4]: 9 nM

Compound: NC/C(=C/F)CCc1ccc(F)cc1 [MOFEGILINE]
- IC50 [1]: > 30000 nM
- IC50 [2]: 750 nM
- IC50 [4]: 2 nM

Compound: Cl.NC/C(=C\F)[C@H]1Cc2ccccc2O1
- fraction unbound [5]: 0.24
- Activity (Mus musculus [6]): Active
- fraction unbound [7]: 0.51
- IC50 (Cytochrome P450 2C19): > 10000 nM
- inhibition (Rattus norvegicus [8]): Active
- IC50 (Cytochrome P450 1A2): > 10000 nM
- IC50 [1]: > 30000 nM
- remaining at 1 h [9]: 92%
- IC50 [2]: 2400 nM
- fraction unbound [10]: 0.42
- AUC(0-inf) [11]: 265 ng·h/mL
- IC50 (Cytochrome P450 2C9): > 10000 nM
- IC50 [12]: > 30000 nM
- IC50 (Lysyl oxidase homolog 2): > 30000 nM
- Tmax [13]: 20 min
- Cmax [14]: 199 ng/mL
- remaining at 1 h [15]: 67%
- IC50 (Cytochrome P450 2D6): > 10000 nM
- remaining at 1 h [16]: 84%
- IC50 (Cytochrome P450 3A4): > 10000 nM
- IC50 (Protein-lysine 6-oxidase): > 30000 nM
- Activity (Mus musculus [17]): Active
- IC50 [18]: 0.4 nM
- inhibition (Rattus norvegicus [19]): Active
- inhibition (Rattus norvegicus [20]): Active
- Activity (Mus musculus [21]): Active
- remaining at 1 h [22]: > 95%

Compound: NC/C(=C/F)[C@@H]1Cc2ccccc2O1
- IC50 [2]: 100 nM

Compound: NC/C(=C/F)[C@H]1Cc2ccccc2O1
- IC50 [1]: > 30000 nM
- IC50 [2]: 6800 nM

Compound: Cc1ccccc1OC/C(=C/F)CN
- IC50 [1]: > 30000 nM
- IC50 [2]: 160 nM
- IC50 [4]: 3 nM

Compound: NCC(=CF)COc1ccc(F)cc1 (mixture of isomers)
- IC50 [1]: 780 nM
- IC50 [2]: 14000 nM
- IC50 [4]: 4 nM

Compound: Cl.NCC(=CF)C1Cc2ccccc2O1 (mixture of isomers)
- inhibition (INH) [23]: Active
- IC50 [1]: > 30000 nM
- inhibition (INH) [24]: Active
- IC50 [2]: 460 nM
- inhibition (INH) [25]: Active

Compound: NC/C(=C\F)COc1ccccc1
- IC50 [1]: > 30000 nM
- IC50 [2]: 4000 nM
- IC50 [4]: 13 nM
